# Counter-ions that a name gives are not always drawn.
# Legend:
# [1] = tested on: anti-TFV antibody conjugated to gold nanoparticles; experiment: Lateral flow assay specificity test; assay type: binding, rabbit; conditions: 100 μg/mL in urine
# Protocol: (§1) Hi-Flow Plus HF180 nitrocellulose sheets were laser cut into lateral flow strips and chromatography paper was adhered to the end of the strips as a waste reservoir using autoclave tape. Samples of TFV were prepared at varying concentrations between 10 ng/mL and 100 μg/mL in urine alongside a no TFV control sample. For each sample, 1 μL of conjugated gold nanoparticles was added to 244, of PBS and 804, of sample was added. The mixture was allowed to incubate at room temperature on a rotator for at least 30 minutes. 0.3 μL of anti-rabbit antibody was spotted on the strips as a control spot. 0.3 μL of 2.5 μg/mL BSA-TFV was spotted as the test spot on the strips upstream of the control spot. The spots were allowed to dry and another 0.3 μL of BSA-TFV was spotted on top of the test spot. After incubation, concentrated TBS-T was added to each sample such that the final Tween 20 concentration was 0.05%. One end of each of the lateral flow strips was dipped vertically into the sample tubes such that the solution ran up the nitrocellulose strip and into the waste reservoir via capillary action. The strips were incubated in the solution for 25-30 minutes before being photographed with a Nikon DS-Ri2 camera and analyzed via ImageJ.
# The protocol is the same as the competitive lateral flow assay. Solutions of TFV, AZT, Abcavir, AMP, and adenine were made at concentrations of 100 μg/mL alongside a urine only control sample.
# [2] = tested on: anti-TFV polyclonal antibody; experiment: Immunoprecipitation of TFV by anti-TFV antibody, LC-MS readout; assay type: binding, rabbit; conditions: mixture of 50 μg/mL TFV and 1 mg/mL AMP (AMP 20× higher), anti-TFV serum, Protein G beads
# Protocol: LC-MS measurements were taken on an Agilent 1100 series LC/MSD with a Cortecs C18 column (90 Å, 2.7 μm, 4.6 mm×150 mm) from Waters (Milford, Mass.). Samples were dissolved in a solution of 9754, 0.6% trifluoroacetic acid in water and 254, methanol. 204, of sample was injected into a gradient mobile phase outlined in Table 1 at a flowrate of 0.6 mL/min into the column equilibrated at 45° C. and passed through the mass spectrometer set for positive polarity electrospray ionization (ESI+) at a range of 100-1500 m/z.
# Two samples were prepared containing a mixture of 1004, of 50 μg/mL TFV and 100 μL of 1 mg/mL AMP. To one tube 375 μL of anti-TFV serum (+IP) was added and to the other 375 μL of PBS (−IP). The samples were incubated while rotating at 4° C. overnight. 3004, of Protein G bead suspension was added to the samples and further incubated at 4° C. for 1 hour. The samples were spun down for 1 minute at 3000 rpm and decanted. The supernatant from the (−IP) sample (−IPsup) was set aside. The beads were then washed and decanted four times with yeast lysis buffer (50 mM HEPES pH 7.6, 1 mM EDTA, 1% Triton X-100, 0.1% sodium deoxycholate, 140 mM NaCl), with the third wash being with a high salt yeast lysis buffer (500 mM NaCl). The beads were then heat eluted for 5 minutes at 95° C. into 100 μL of TE buffer. […]
# [3] = cited from earlier work
# [4] = cited from earlier work; remark: listed apart in the source
# [5] = tested on: anti-TFV polyclonal antibody; experiment: Competitive dot blot assay; assay type: binding, rabbit; conditions: spiked urine, HRP-coupled secondary antibody
# Protocol: Nitrocellulose strips were cut to dimensions of approximately 7 mm by 25 mm. BSA-TFV solution in PBS was diluted down to either 1 μg/mL or 100 ng/mL representing about a 1000-fold or 10,000-fold dilution factor. The strips were then spotted 3 times with luL of diluted BSA-TFV and allowed to dry. The strips were blocked with 5% milk in tris-buffered saline with Tween 20 (TBS-T) for 30 minutes and washed three times with TBS-T. Samples of TFV were prepared at varying concentrations between 1 ng/mL and 1 μg/mL in either TBS-T or human urine alongside a no TFV control sample. Anti-TFV polyclonal antibody from raw serum (e.g., unpurified) was added to the TFV samples at a dilution of 1:50,000 and incubated at room temperature while rotating for at least 1 hour. The strips were incubated in the spiked urine or TBS-T solutions of TFV and anti-TFV polyclonal antibody at room temperature while rotating for 1 hour and washed three times with TBS-T followed by a high-salt (500 mM NaCl) TBS-T wash and a low-salt (50 mM NaCl) TBS-T wash. The strips were then incubated in a 1:8000 dilution in TBS-T of anti-Rabbit antibody conjugated to HRP at room temperature while rotating for 1 hour and washed three times with TBS-T. The HRP was then visualized by pico chemiluminescent substrate and chemiluminescent photographs were taken by a VersaDoc Imaging Model 4000 system from BioRad.
# [6] = tested on: anti-TFV antibody conjugated to gold nanoparticles; experiment: Competitive gold nanoparticle lateral flow assay, sensitivity test; assay type: binding, rabbit
# Protocol: as §1
# There was a statistically significant difference between groups as determined by one-way ANOVA (F(5,24)=15.0, p=1.02×10^−6).
compound,measurement,setting,value
"Nc1ncnc2c1ncn2[C@@H]1O[C@H](COP(=O)(O)O)[C@@H](O)[C@H]1O [AMP, adenosine monophosphate]",staining of test area (no staining = positive for TFV),[1],staining in both the test area and control area
same,presence in immunoprecipitation product by LC-MS,[2],absence
Cc1cn([C@H]2C[C@H](N=[N+]=[N-])[C@@H](CO)O2)c(=O)[nH]c1=O [AZT],staining of test area (no staining = positive for TFV),[1],staining in both the test area and control area
Nc1nc(NC2CC2)c2ncn([C@H]3C=C[C@@H](CO)C3)c2n1 [Abcavir],staining of test area (no staining = positive for TFV),[1],staining in both the test area and control area
"Nc1ncnc2nc[nH]c12 [Adenine, adenine]",staining of test area (no staining = positive for TFV),[1],staining in both the test area and control area
"NNC(=O)c1ccncc1 [INH, isoniazid]",urinary concentrations of INA,[3]; typical dose 250 mg/day for a 50 kg patient,~100 µg/mL
same,oral dose recovered in the urine as INA,[3]; within 24 hr,30-40%
"CC(C)OC(=O)[C@H](C)N[P@](=O)(CO[C@H](C)Cn1cnc2c(N)ncnc21)Oc1ccccc1 [TAF, tenofovir alafenamide]",decrease in TFV plasma concentrations,"[4]; TAF 25 mg per day, compared with TDF",~10 ×
"CC(C)OC(=O)OCOP(=O)(CO[C@H](C)Cn1cnc2c(N)ncnc21)OCOC(=O)OC(C)C [TDF, tenofovir disoproxil fumarate]",urine concentration of TFV,[4]; patient taking 300 mg TDF daily,around 23 μg/mL
"C[C@H](Cn1cnc2c(N)ncnc21)OCP(=O)(O)O [TFV, Tenofovir]",lower limit of detection,[5],35 nM
same,staining of test area (no staining = positive for TFV),[1],no staining
same,"test spot intensity versus no-TFV control (ANOVA, Tukey post hoc)","[6]; 1 μg/mL, 10 μg/mL and 100 μg/mL TFV in urine, N=5",statistically significant differences
same,lower limit of detection / sensitivity,"[6]; spiked urine, preliminary",1 µg/mL
same,presence in immunoprecipitation product by LC-MS,[2],presence
same,concentration of TFV in urine,"[4]; 300 mg ingested only once, after 24-72 hours",1000 to 10000 ng/mL
same,urinary concentration of TFV relative to plasma concentration,[4]; patients on TFV regimens,over 100 ×
